Data: article PMC6722823, “Peptide Antagonists for P-selectin Discriminate between Sulfatide-Dependent Platelet Aggregation and PSGL-1-Mediated Cell Adhesion” (Journal of Clinical Medicine, 2019)
Positions of bridges follow the written chain, without caps; N, C: chain ends. Residues, ends and D or L forms follow the SMILES beside them. No end group written: not given here.

T1: L-selectin (Homo sapiens, UniProt P14151)
T1 sequence (P14151 39-318 limits assumed): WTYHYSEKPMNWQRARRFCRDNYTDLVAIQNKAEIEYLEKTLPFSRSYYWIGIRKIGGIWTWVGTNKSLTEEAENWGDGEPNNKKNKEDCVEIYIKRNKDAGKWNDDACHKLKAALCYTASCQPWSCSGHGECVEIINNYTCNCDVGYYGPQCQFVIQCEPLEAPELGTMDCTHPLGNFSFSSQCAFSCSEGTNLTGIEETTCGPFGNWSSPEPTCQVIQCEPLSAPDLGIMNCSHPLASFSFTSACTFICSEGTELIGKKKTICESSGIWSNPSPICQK

T2: human P-selectin-IgG (human, UniProt P16109 42-771)
T2 construct: P-selectin, human, fused to IgG (Fc); Captured in the wells through Fc-specific goat anti-human IgG; also called human Fc fusion protein of P-selectin; fusion protein of IgG and P-selectin; source: bought: R&D systems
T2 sequence (looked up): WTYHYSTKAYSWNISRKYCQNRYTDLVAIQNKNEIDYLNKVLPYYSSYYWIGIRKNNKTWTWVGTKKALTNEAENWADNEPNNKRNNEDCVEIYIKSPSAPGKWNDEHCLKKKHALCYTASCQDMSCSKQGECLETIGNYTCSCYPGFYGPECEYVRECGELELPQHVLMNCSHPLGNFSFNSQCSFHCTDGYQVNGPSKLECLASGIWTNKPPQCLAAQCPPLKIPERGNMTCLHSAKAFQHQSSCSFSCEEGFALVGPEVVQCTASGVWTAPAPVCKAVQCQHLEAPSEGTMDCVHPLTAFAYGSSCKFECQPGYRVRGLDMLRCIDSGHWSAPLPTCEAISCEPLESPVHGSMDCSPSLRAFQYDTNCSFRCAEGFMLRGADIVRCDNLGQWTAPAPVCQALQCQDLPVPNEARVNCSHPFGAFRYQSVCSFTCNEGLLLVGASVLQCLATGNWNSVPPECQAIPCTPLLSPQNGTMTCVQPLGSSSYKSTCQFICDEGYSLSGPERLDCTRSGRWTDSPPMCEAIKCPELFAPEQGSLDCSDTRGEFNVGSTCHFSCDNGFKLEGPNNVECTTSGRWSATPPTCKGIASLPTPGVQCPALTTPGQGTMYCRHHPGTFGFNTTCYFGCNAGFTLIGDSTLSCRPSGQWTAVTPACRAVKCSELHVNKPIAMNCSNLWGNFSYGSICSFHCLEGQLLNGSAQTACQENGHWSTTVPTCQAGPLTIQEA


Columns and labels:
[1] = molecular target: T3, P-selectin (Homo sapiens, UniProt P16109); assay: Competition of [3H]-CE-labeled sulfatide liposome binding to P-selectin-coated wells; details: for Change in Sf42 liposome binding to P-selectin: Sf42 liposomes 100 μg/mL; for Change in Sf57 liposome binding to P-selectin: Sf57 liposomes 100 μg/mL; for Change in Sf28 liposome binding to P-selectin: Sf28 liposomes 100 μg/mL; for EC50: Sf28 liposomes (28% sulfatide)
T3 construct: purchased R&D systems (Minneapolis, MN, USA)
Experimental: Liposomes were prepared by sonication as follows. Egg yolk phosphatidylcholine, cholesterol, and sulfatides, all dissolved in chloroform/methanol (1:1, v/v), were mixed at weight ratios of 4:0.8:0 (named Sf0), 4:0.8:1.3 (Sf21), 2.5:0.8:1.3 (Sf28), 1:0.8:1.3 (Sf42), and 0.2:0.8:1.3 mg/mL (Sf57). The Sf numbers indicate the number of sulfatides as a percentage of total lipid weight. A tracer amount of [^3H]-cholesteryl oleate ([^3H]-CE; 1.3 × 10^8 dpm (disintegrations per minute)) was added, and the organic solvent was evaporated by a stream of nitrogen. The resulting lipid layer was vortexed in 1 mL phosphate buffered saline (PBS) and subsequently sonicated for 40 min at 54 °C using a Soniprep 150 (MSE Scientific Instruments, Crawley, UK) at 18 µm amplitude. Particle sizes were determined by photon correlation spectroscopy (Malvern 4700 C System, Malvern Instruments, Malvern, UK) at 25 °C and a 90° angle between laser and detector. […] Liposomes were stored at 4 °C under argon and used for characterization and metabolic studies within 7 days following preparation, during which no physicochemical changes occurred. As the liposomes were equal in size and incorporation of the radioactive label was quantitative, the specific activity of each sulfatide-bearing liposome was calculated as the amount of [^3H]-cholesteryloleate (dpm) divided by the total lipid content (ng).
Fc-specific goat anti-human IgG (10 μg/mL) was coated overnight at 4 °C in a high binding 96-well plate (Costar, Corning, UK) in coating buffer (50 mM NaHCO3, pH 9.6). Then, wells were washed with assay buffer (20 mmol/L HEPES, 150 mmol/L NaCl, 1 mmol/L CaCl2, pH 7.4) and incubated for 1 h at 37 °C with blocking buffer (3% bovine serum albumin (BSA) in assay buffer). After washing, wells were incubated with fusion proteins of IgG and P-, E-, or L-selectin (0.3 μg/mL, 2 h, 37 °C), washed with assay buffer, and subsequently incubated for 2 h at 4 °C with a concentration range of [^3H]-CE-labeled liposomes (0–800 µg lipid per mL assay buffer containing 0.2% BSA). For competition studies, labeled liposomes (1 × 10^5 dpm/well) were incubated in the presence of peptides or antibodies at the indicated concentrations. After removal of unbound liposomes by washing four times with assay buffer, bound liposomes were collected in 2-propanol/butanol/water (50:25:20, by vol.) and counted for radioactivity using a scintillation counter. Since the sulfatide liposomes were equal in size, the recovered amount of [^3H]-CE could be used to calculate the binding capacity of P-selectin for the sulfatide liposomes, as well as the recovered amount of lipid (ng/well) based on the specific activity.

[2] = tested on: human platelets; assay: ADP-induced platelet aggregation in human platelet-rich plasma (optical aggregometry); format: cell-based; details: 10 μM ADP
Source text: Freshly drawn venous blood from healthy volunteers was obtained through the Mini Donor Service, a blood donation facility for research purposes, that is approved by the Medical Ethics Committee of the University Medical Center Utrecht (protocol number 07-125). All donors provided written informed consent, in accordance with the Declaration of Helsinki for blood collection through this service. All participant information is kept confidential, and only Mini Donor Service personnel have access to the information provided. The donors were free of medication for at least two weeks before blood collection. Overnight fasting before blood collection was not necessary. Blood was collected into 0.1 volume 130 mmol/L trisodium citrate and was processed the same day and within 6 h. For aggregation studies, platelet-rich plasma (PRP) was prepared by centrifugation (150 g, 15 min, 20 °C) and adjusted to a final concentration of 2×10^11 platelets/L with platelet-poor plasma prepared from the remaining blood (1100 g, 10 min, 20 °C). […]
(§1) Human PRP was incubated with peptide antagonists (100 μmol/L, 5 min, 37 °C) or vehicle and stimulated with 10 μmol/L ADP under constant stirring at 1000 rpm (37 °C). Optical aggregation was monitored in a Chrono-Log Lumi-aggregometer (Chrono-Log Corporation, Havertown, PA, USA).

[3] = tested on: human platelets; assay: Aggregate size after ADP-induced aggregation of human PRP (light microscopy); format: cell-based; details: 100 μM
Experimental: as §1
After 15 min, aggregates were fixed in 1 volume 0.5% glutaraldehyde in PBS and applied to microscope slides. Aggregates were dehydrated with methanol and stained with May-Grünwald/Giemsa. The aggregate size was measured by light microscopy equipped with a JAI-CCD camera (Copenhagen, Denmark) coupled to a Matrox frame grabber (Matrox Electronic Systems Ltd., Dorval, Quebec, Canada) using the ‘watershed’ function of the Optimas 6.2 software (Optimas Inc., Seattle, WA, USA). Results were expressed as mean aggregate size (μm^2).

[4] = molecular target: P-selectin binding to HL60 cells (PSGL-1) (Homo sapiens, UniProt P16109); details: displacement of P-selectin binding to HL60 cells; ref Molenaar et al. [28]; cited from earlier work
[5] = molecular target: T4, E-selectin (Homo sapiens, UniProt P16581); assay: Surface plasmon resonance (Biacore), sulfatide-coated L1 chip, E-selectin; format: binding; details: Fc fusion protein 40 nM
T4 construct: purchased R&D systems (Minneapolis, MN, USA)
Experimental: (§2) A Biacore 2000 instrument (Biacore AB, Uppsala, Sweden) was used to analyze the interaction between sulfatides and P-, L, and E-selectins, as described. Experiments were performed at room temperature using running buffer (20 mmol/L HEPES, 150 mmol/L NaCl, 1 mmol/L CaCl2, 0.005% Surfactant P20, pH 7.4). Sulfatides were immobilized on L1 sensor chips at 5 μL/min according to the manufacturer’s instructions. Binding kinetics of human fusion proteins IgG and P-, L- and E- selectins to the immobilized sulfatides were determined by injection of the fusion proteins. At the end of each injection, the sensor chips were regenerated with 100 mmol/L NaOH and equilibrated with running buffer. All curves were corrected for non-specific binding by an online baseline subtraction of ligand binding to a control flow channel. Binding kinetics were analyzed using BIAevaluation software (V2.1; Pharmacia Biosensor, Uppsala, Sweden).

[6] = molecular target: T1, L-selectin; assay: Surface plasmon resonance (Biacore), sulfatide-coated L1 chip, L-selectin; format: binding; details: Fc fusion protein 40 nM
Experimental: as §2

[7] = molecular target: T3, P-selectin; assay: Surface plasmon resonance (Biacore), sulfatide-coated L1 chip, P-selectin; format: binding; details: Fc fusion protein 40 nM
Experimental: as §2
Target sequence in this assay (P16109 with tags, fused parts or gaps limits assumed): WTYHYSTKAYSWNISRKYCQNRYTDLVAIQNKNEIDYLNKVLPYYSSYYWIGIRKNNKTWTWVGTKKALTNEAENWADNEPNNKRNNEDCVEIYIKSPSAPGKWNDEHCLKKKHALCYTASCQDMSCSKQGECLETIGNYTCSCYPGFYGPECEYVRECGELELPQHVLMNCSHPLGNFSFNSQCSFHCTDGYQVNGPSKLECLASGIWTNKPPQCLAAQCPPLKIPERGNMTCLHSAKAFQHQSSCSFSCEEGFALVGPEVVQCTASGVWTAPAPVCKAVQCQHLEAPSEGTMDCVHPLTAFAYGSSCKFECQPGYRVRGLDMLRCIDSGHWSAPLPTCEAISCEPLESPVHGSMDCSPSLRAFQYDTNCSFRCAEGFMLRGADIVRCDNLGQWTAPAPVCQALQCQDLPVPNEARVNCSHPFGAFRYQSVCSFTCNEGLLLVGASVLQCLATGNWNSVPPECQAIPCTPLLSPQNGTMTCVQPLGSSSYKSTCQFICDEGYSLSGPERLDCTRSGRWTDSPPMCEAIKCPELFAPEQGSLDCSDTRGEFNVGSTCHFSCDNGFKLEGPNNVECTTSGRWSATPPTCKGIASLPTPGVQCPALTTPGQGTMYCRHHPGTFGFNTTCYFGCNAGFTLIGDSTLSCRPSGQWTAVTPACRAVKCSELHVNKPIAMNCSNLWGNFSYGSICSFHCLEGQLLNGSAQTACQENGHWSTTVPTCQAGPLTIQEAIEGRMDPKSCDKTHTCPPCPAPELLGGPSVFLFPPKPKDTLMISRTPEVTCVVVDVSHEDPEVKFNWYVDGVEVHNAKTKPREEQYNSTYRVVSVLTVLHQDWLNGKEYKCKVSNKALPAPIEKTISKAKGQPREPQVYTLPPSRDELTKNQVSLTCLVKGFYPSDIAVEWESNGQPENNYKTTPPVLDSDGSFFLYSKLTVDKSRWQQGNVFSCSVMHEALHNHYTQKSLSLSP

[8] = molecular target: human P-selectin-IgG (human) (UniProt P16109)
[9] = molecular target: T2, human P-selectin-IgG; assay: radioligand binding; displacement: P-selectin-IgG (0.3 ug/mL) captured on Fc-specific goat anti-human IgG in 96-well plates; [3H]-cholesteryl oleate-labelled Sf28 sulfatide liposomes (1 x 10^5 dpm/well) with increasing amounts of peptide; 2 h, 4 C; 20 mmol/L HEPES, 150 mmol/L NaCl, 1 mmol/L CaCl2, pH 7.4, 0.2% BSA; details: both partners purified

Chain of P-selectin binding to HL60 cells (PSGL-1) (P16109 42-830 limits assumed): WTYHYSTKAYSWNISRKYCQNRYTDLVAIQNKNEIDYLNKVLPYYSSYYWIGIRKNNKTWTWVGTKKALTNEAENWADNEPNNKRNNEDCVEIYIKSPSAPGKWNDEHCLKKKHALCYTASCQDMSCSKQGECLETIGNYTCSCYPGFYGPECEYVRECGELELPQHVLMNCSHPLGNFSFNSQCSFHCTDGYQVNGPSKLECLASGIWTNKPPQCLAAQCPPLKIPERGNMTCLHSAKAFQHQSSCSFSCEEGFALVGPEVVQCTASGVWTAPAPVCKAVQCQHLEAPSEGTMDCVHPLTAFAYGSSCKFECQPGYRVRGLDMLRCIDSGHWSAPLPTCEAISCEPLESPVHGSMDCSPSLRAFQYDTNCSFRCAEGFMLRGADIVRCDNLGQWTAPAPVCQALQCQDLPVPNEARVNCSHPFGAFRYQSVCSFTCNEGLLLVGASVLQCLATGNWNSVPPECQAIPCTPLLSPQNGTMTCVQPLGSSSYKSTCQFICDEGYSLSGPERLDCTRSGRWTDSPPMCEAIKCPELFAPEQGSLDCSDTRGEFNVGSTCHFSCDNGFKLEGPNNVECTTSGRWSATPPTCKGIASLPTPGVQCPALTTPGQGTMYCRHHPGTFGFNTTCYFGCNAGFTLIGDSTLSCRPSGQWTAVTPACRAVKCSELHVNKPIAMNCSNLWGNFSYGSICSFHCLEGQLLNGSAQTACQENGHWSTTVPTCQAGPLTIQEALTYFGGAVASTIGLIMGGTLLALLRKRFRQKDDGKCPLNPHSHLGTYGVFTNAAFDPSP
T4 sequence (P16581 with tags, fused parts or gaps limits assumed): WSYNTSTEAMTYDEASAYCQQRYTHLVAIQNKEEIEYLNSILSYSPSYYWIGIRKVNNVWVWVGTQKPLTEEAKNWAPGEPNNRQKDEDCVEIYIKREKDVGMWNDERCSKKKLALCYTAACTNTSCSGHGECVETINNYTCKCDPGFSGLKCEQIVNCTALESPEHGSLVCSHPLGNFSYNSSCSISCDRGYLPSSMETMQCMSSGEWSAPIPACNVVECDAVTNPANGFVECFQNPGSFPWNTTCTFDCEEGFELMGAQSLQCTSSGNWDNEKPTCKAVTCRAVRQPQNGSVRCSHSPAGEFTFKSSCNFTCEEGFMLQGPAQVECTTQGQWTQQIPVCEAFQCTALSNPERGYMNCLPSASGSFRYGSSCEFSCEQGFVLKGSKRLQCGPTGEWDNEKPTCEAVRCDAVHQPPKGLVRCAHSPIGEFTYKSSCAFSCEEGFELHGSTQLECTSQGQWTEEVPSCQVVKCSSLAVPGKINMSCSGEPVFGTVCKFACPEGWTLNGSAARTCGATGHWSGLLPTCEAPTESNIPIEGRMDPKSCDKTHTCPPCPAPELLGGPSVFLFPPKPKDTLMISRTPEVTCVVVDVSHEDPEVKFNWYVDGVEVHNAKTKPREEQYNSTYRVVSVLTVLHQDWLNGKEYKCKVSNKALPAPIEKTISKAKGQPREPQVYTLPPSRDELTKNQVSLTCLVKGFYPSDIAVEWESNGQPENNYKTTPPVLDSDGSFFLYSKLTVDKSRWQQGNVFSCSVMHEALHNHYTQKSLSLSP

Molecule	EC50 [1] [µM]	EC50 [4] [µM]	further results
CC(C)[C@@H]1NC(=O)[C@H](CC(=O)O)NC(=O)[C@H](C(C)C)NC(=O)[C@H](Cc2c[nH]c3ccccc23)NC(=O)[C@H](CCC(=O)O)NC(=O)[C@H](C(C)C)NC(=O)[C@H](CC(=O)O)NC(=O)[C@@H](N)CSSC[C@@H](C(=O)O)NC(=O)[C@H](CO)NC1=O [CDVEWVDVSC] (H-CDVEWVDVSC-OH; disulfide 1-10 (inferred); N-terminus and C-terminus assumed)	–	–	Change in Sf42 liposome binding to P-selectin ([1]; 0.5 µM): did not affect; Change in Sf57 liposome binding to P-selectin ([1]; 0.5 µM): did not affect; Initial slope of platelet aggregation ([2]; 100 μM peptide): remained unaltered; Aggregation: percentage inhibition of platelet aggregation ([2]; 100 µM peptide, human PRP, maximum aggregation): 43% (p<0.001); Reduction of mean aggregate size ([3]; ADP-induced aggregation of human PRP): about 90%; Aggregates smaller than 1000 μm^2 ([3]; 15% in the absence of inhibitors): 76%
O=C(O)CN(CCN(CC(=O)O)CC(=O)O)CC(=O)O [EDTA, reference compound]	–	–	Change in Sf28 liposome binding to P-selectin ([1]; 10 mM): −79%; Change in Sf42 liposome binding to P-selectin ([1]; 10 mM): did not affect; Change in Sf57 liposome binding to P-selectin ([1]; 10 mM): did not affect
AVEWVDVS [AVEWVDVS]	> 1000	12	–
DAEWVDVS [DAEWVDVS]	> 1000	19	–
DVAWVDVS [DVAWVDVS]	> 1000	41	–
DVEAVDVS [DVEAVDVS]	> 1000	> 1000	–
DVEWADVS [DVEWADVS]	> 1000	> 1000	–
DVEWVAVS [DVEWVAVS]	> 1000	> 1000	–
DVEWVDAS [DVEWVDAS]	> 1000	> 1000	–
DVEWVDVA [DVEWVDVA]	–	7	–
DVEWVDVS [DVEWVDVS]	12	11	–
EWVDV [EWVDV]	> 1000	12	IC50 ([1]; abstract): > 1000 µM
EWVKV [EWVKV]	> 1000	> 1000	–
VEWVDV [VEWVDV]	> 1000	13	–
cerebroside sulfate, bovine [Sulfatides]	–	–	Binding of E-selectin to sulfatide-coated sensor chip [5]: not E-selectin; Binding of L-selectin to sulfatide-coated sensor chip [6]: bind; Binding of P-selectin to sulfatide-coated sensor chip [7]: bind
rPSGL-1-Ig: recombinant PSGL-1 immunoglobulin fusion, P-selectin inhibitor	–	–	Change in Sf28 liposome binding to P-selectin ([1]; 15 µg/mL): −88%; Change in Sf42 liposome binding to P-selectin ([1]; 15 µg/mL): −97%; Change in Sf57 liposome binding to P-selectin ([1]; 15 µg/mL): −68%
EWVDV	–	–	Percentage inhibition of ADP-induced aggregation of human platelet-rich plasma at 100 uM peptide (sulfatide/P-selectin-dependent aggregation) [8]: 12%
EWVKV	–	–	Percentage inhibition of ADP-induced aggregation of human platelet-rich plasma at 100 uM peptide (sulfatide/P-selectin-dependent aggregation) [8]: 0%
DVEWVDVA (also called elongated EWVDV peptide)	–	–	EC50 [9]: 8 µM
CDVEWVDVSC (also called peptide antagonist; elongated EWVDV peptide)	–	–	EC50 [9]: 0.2 µM
